Measured values as given in patent US4593104A, “2-halo-N-(azole-1-yl-methyl)-substituted acetanilides” (BASF Aktiengesellschaft, priority 1976, dated 1986).

Tests used:
Sorgh. bicol. = assay: preemergence treatment in the greenhouse, % damage; format: in vivo, Sorghum bicolor
Text: (§1) The vessels employed were plastic flowerpots having a volume of 300 cm^3; the substrate was a sandy loam containing about 1.5% humus. The seeds of the test plants (see Table 1) were sown shallow, and separated according to species. In the case of Cyperus esculentus, pregerminated tubers were planted. In the preemergence treatment, the active ingredients were then immediately applied to the surface of the soil. They were suspended or emulsified in water as the vehicle, and sprayed through atomizing nozzles. After the agents had been applied, the vessels were lightly sprinkler-irrigated to set germination and growth going, and to activate the chemical agents. The vessels were then covered with transparent plastic hoods until the plants had taken root. This cover ensured uniform germination of the test plants (to the extent that this was not impaired by the chemicals), and prevented readily volatile substances from evaporating.
(§2) For postemergence treatment, the plants were first grown to a height of from 3 to 10 cm, depending on their habit, before treated. Hoods were not placed on the pots. The experiments were set up in the greenhouse, hotter areas (25° to 40° C.) being preferred for heat-loving species, and 15° to 30° C. for plants from moderate climates. The experiments were carried out for from 4 to 6 weeks. During this period the plants were tended and their reaction to the various treatments was assessed. The following tables contain the substances investigated, the application rates in kg/ha of active ingredient, and the test plant species. Assessments were made on a 0 to 100 scale, 0 denoting no damage or normal emergence, and 100 denoting no emergence or complete destruction of at least the visible plant parts.

Zea mays = assay: preemergence treatment in the greenhouse, % damage; format: in vivo
Text: as §1, §2

Setaria spp. [1] = assay: preemergence treatment in the greenhouse, % damage; format: in vivo
Text: as §1, §2

Alopec. myosur. [2] = assay: preemergence treatment in the greenhouse, % damage; format: in vivo
Text: as §1, §2

Amar. retro. = assay: preemergence treatment in the greenhouse, % damage; format: in vivo
Text: as §1, §2

Beta vulg. = assay: preemergence treatment in the greenhouse, % damage; format: in vivo, Beta vulgaris
Text: as §1, §2

Glyc. max = assay: preemergence treatment in the greenhouse, % damage; format: in vivo, Glycine max
Text: as §1, §2

Cyper. escul. [3] = assay: postemergence application in the greenhouse, % damage; format: in vivo, Cyperus esculentus
Text: as §1, §2

Solanum nigrum = assay: preemergence treatment in the greenhouse, % damage; format: in vivo
Text: as §1, §2

Euph. gen. = assay: preemergence treatment in the greenhouse, % damage; format: in vivo
Text: as §1, §2

Echin. c.g. = assay: preemergence treatment in the greenhouse, % damage; format: in vivo
Text: as §1, §2

Matric. spp. [4] = assay: postemergence application in the greenhouse, % damage; format: in vivo
Text: as §1, §2

Setaria spp. [5] = assay: as above; format: in vivo
Text: as §1, §2

Avena fat. = assay: as above; format: in vivo
Text: as §1, §2

Chrys. seget. = assay: as above; format: in vivo
Text: as §1, §2

Alopec. myosur. [6] = assay: as above; format: in vivo
Text: as §1, §2

Stell. med. [7] = assay: as above; format: in vivo
Text: as §1, §2

Gossyp. hirs. = assay: preemergence treatment in the greenhouse, % damage; format: in vivo, Gosspyium hirsutum
Text: as §1, §2

Cyper. escul. [8] = assay: preemergence treatment in the greenhouse, % damage; format: in vivo, Cyperus esculentus
Text: as §1, §2

Matric. spp. [9] = assay: preemergence treatment in the greenhouse, % damage; format: in vivo
Text: as §1, §2

Sorgh. halep. = assay: preemergence treatment in the greenhouse, % damage; format: in vivo
Text: as §1, §2

Stell. med. [10] = assay: preemergence treatment in the greenhouse, % damage; format: in vivo
Text: as §1, §2

Cyp. diff. = assay: preemergence treatment in the greenhouse, % damage; format: in vivo
Text: as §1, §2

CCc1ccccc1N(Cn1ccc(C)n1)C(=O)CCl [Compound 69]
% damage (Sorgh. bicol.; 0.5 kg/ha): 10%
% damage (Zea mays; 0.5 kg/ha): 0%
% damage (Setaria spp. [1]; 0.5 kg/ha): 80%
% damage (Alopec. myosur. [2]; 0.5 kg/ha): 100%
% damage (Amar. retro.; 0.5 kg/ha): 95%
% damage (Beta vulg.; 0.5 kg/ha): 20%
% damage (Glyc. max; 0.5 kg/ha): 20%

CCc1cccc(C)c1N(Cn1cncn1)C(=O)CCl [Compound 189]
% damage (Cyper. escul. [3]; 1.0 kg/ha): 65%
% damage (Cyper. escul. [3]; 2.0 kg/ha): 65%
% damage (Solanum nigrum; 0.5 kg/ha): 30%
% damage (Solanum nigrum; 1.0 kg/ha): 95%
% damage (Solanum nigrum; 2.0 kg/ha): 95%
% damage (Setaria spp. [1]; 0.5 kg/ha): 75%
% damage (Setaria spp. [1]; 1.0 kg/ha): 95%
% damage (Setaria spp. [1]; 2.0 kg/ha): 100%
% damage (Euph. gen.; 0.5 kg/ha): 90%
% damage (Euph. gen.; 1.0 kg/ha): 95%
% damage (Euph. gen.; 2.0 kg/ha): 95%
% damage (Amar. retro.; 0.5 kg/ha): 30%
% damage (Amar. retro.; 1.0 kg/ha): 95%
% damage (Amar. retro.; 2.0 kg/ha): 95%
% damage (Echin. c.g.; 0.5 kg/ha): 90%
% damage (Echin. c.g.; 1.0 kg/ha): 95%
% damage (Echin. c.g.; 2.0 kg/ha): 95%
% damage (Matric. spp. [4]; 1.0 kg/ha): 30%
% damage (Matric. spp. [4]; 2.0 kg/ha): 60%
% damage (Setaria spp. [5]; 1.0 kg/ha): 80%
% damage (Setaria spp. [5]; 2.0 kg/ha): 85%
% damage (Avena fat.; 1.0 kg/ha): 60%
% damage (Avena fat.; 2.0 kg/ha): 60%
% damage (Chrys. seget.; 1.0 kg/ha): 0%
% damage (Chrys. seget.; 2.0 kg/ha): 20%
% damage (Alopec. myosur. [6]; 1.0 kg/ha): 70%
% damage (Alopec. myosur. [6]; 2.0 kg/ha): 70%
% damage (Stell. med. [7]; 1.0 kg/ha): 0%
% damage (Stell. med. [7]; 2.0 kg/ha): 40%
% damage (Gossyp. hirs.; 0.5 kg/ha): 0%
% damage (Gossyp. hirs.; 1.0 kg/ha): 20%
% damage (Gossyp. hirs.; 2.0 kg/ha): 20%
% damage (Glyc. max; 0.5 kg/ha): 0%
% damage (Glyc. max; 1.0 kg/ha): 0%
% damage (Glyc. max; 2.0 kg/ha): 0%
% damage (Cyper. escul. [8]; 0.5 kg/ha): 50%
% damage (Cyper. escul. [8]; 1.0 kg/ha): 60%
% damage (Cyper. escul. [8]; 2.0 kg/ha): 80%

CCc1cccc(C)c1N(Cn1nc(C)c(Cl)c1C)C(=O)CCl [Compound 107]
% damage (Sorgh. bicol.; 2.0 kg/ha): 85%
% damage (Zea mays; 2.0 kg/ha): 0%
% damage (Setaria spp. [1]; 2.0 kg/ha): 95%
% damage (Alopec. myosur. [2]; 2.0 kg/ha): 95%
% damage (Amar. retro.; 2.0 kg/ha): 95%
% damage (Beta vulg.; 2.0 kg/ha): 0%
% damage (Glyc. max; 2.0 kg/ha): 0%

Cc1ccc(C)c(N(Cn2cncn2)C(=O)CCl)c1C [Compound 136]
% damage (Matric. spp. [9]; 0.5 kg/ha): 50%
% damage (Matric. spp. [9]; 1.0 kg/ha): 90%
% damage (Setaria spp. [1]; 0.5 kg/ha): 90%
% damage (Setaria spp. [1]; 1.0 kg/ha): 100%
% damage (Sorgh. halep.; 0.5 kg/ha): 80%
% damage (Sorgh. halep.; 1.0 kg/ha): 80%
% damage (Alopec. myosur. [2]; 0.5 kg/ha): 50%
% damage (Alopec. myosur. [2]; 1.0 kg/ha): 90%
% damage (Euph. gen.; 0.5 kg/ha): 45%
% damage (Euph. gen.; 1.0 kg/ha): 65%
% damage (Stell. med. [10]; 0.5 kg/ha): 30%
% damage (Stell. med. [10]; 1.0 kg/ha): 80%
% damage (Amar. retro.; 0.5 kg/ha): 70%
% damage (Amar. retro.; 1.0 kg/ha): 70%
% damage (Cyp. diff.; 0.5 kg/ha): 90%
% damage (Cyp. diff.; 1.0 kg/ha): 90%
% damage (Echin. c.g.; 0.5 kg/ha): 95%
% damage (Echin. c.g.; 1.0 kg/ha): 95%
% damage (Gossyp. hirs.; 0.5 kg/ha): 10%
% damage (Gossyp. hirs.; 1.0 kg/ha): 10%

Cc1ccn(CN(C(=O)CCl)c2ccccc2C(C)C)n1 [Compound 72]
% damage (Sorgh. bicol.; 1.0 kg/ha): 20%
% damage (Sorgh. bicol.; 2.0 kg/ha): 40%
% damage (Zea mays; 1.0 kg/ha): 0%
% damage (Zea mays; 2.0 kg/ha): 10%
% damage (Setaria spp. [1]; 1.0 kg/ha): 90%
% damage (Setaria spp. [1]; 2.0 kg/ha): 95%
% damage (Alopec. myosur. [2]; 1.0 kg/ha): 100%
% damage (Alopec. myosur. [2]; 2.0 kg/ha): 100%
% damage (Amar. retro.; 1.0 kg/ha): 95%
% damage (Amar. retro.; 2.0 kg/ha): 95%
% damage (Beta vulg.; 1.0 kg/ha): 10%
% damage (Beta vulg.; 2.0 kg/ha): 10%
% damage (Glyc. max; 1.0 kg/ha): 10%
% damage (Glyc. max; 2.0 kg/ha): 20%
